In general, IC50 refers to the concentration needed to halve the response being measured.

Where only a bound is given, the exact number is not on record here.

We go through 19 molecules from ChEMBL document CHEMBL4340516, “Synthesis and antitumor activity of novel steroidal imidazolium salt derivatives” (Eur J Med Chem, 2019).

Holding throughout (assay type): functional, cell-based
One assay has as its system SMMC-7721. Description: Antiproliferative activity against human SMMC7721 cells assessed as reduction in cell viability incubated for 48 hrs by MTS assay. The settings on record: SMMC-7721, 48 h. Background: Tetrazolium dyes change colour on reduction, which living cells bring about.
The test system of a further assay is SW480. Description: Antiproliferative activity against human SW480 cells assessed as reduction in cell viability incubated for 48 hrs by MTS assay. The settings on record: SW480, 48 h.
In the next assay the test system is HL-60. Description: Antiproliferative activity against human HL60 cells assessed as reduction in cell viability incubated for 48 hrs by MTS assay. The settings on record: HL-60, 48 h.
The next assay has as its system MCF7. Kind of assay: Antiproliferative activity against human MCF7 cells assessed as reduction in cell viability incubated for 48 hrs by MTS assay. The following applies: MCF7, 48 h.
In another assay the test system is A549. Description: Antiproliferative activity against human A549 cells assessed as reduction in cell viability incubated for 48 hrs by MTS assay. The settings on record: A549, 48 h.

As for `COc1ccc(C(=O)C[n+]2ccn([C@H]3C[C@H]4[C@@H]5CC[C@H]([C@H](C)CCCC(C)C)[C@@]5(C)CC[C@@H]4[C@@]4(C)CC[C@@H]5C[C@]534)c2)cc1`, the IC50 in the assay with SMMC-7721 was determined as 1.1 µM; in the assay on SW480, 7.18 µM; in the assay with HL-60 it was 1.52 µM; in the assay on MCF7, 6.54 µM; in the assay with A549, 6.68 µM.

Take `C[C@@H]1CC[C@@]2(OC1)O[C@H]1C[C@H]3[C@@H]4CC=C5C[C@H](n6ccnc6)CC[C@]5(C)[C@H]4CC[C@]3(C)[C@H]1[C@@H]2C`: the concentration for half-maximal inhibition (IC50) in the assay on SMMC-7721, in the assay on SW480, with HL-60, in the assay with MCF7 and with A549 was greater than 20 µM in each case.

Regarding `CC(C)CCC[C@@H](C)[C@H]1CC[C@H]2[C@@H]3CC=C4C[C@H](n5cc[n+](CC(=O)c6ccccc6)c5)CC[C@]4(C)[C@H]3CC[C@]12C`, the IC50 in the assay with SMMC-7721 was determined as 1.49 µM; with SW480, 9.03 µM; with HL-60, 6.85 µM; in the assay with MCF7, 8.41 µM; with A549, 8.42 µM.

`C[C@@H]1CC[C@@]2(OC1)O[C@H]1C[C@H]3[C@@H]4CC=C5C[C@@H](n6cc[n+](CC(=O)c7ccc8ccccc8c7)c6)CC[C@]5(C)[C@H]4CC[C@]3(C)[C@H]1[C@@H]2C`: the half-maximal inhibitory concentration (IC50) in the assay with SMMC-7721 came to 5.49 µM; in the assay with SW480, 6.55 µM; in the assay with HL-60, 1.37 µM; with MCF7, 5.83 µM; in the assay with A549, 3.49 µM.

Consider `CC(C)CCC[C@@H](C)[C@H]1CC[C@H]2[C@@H]3CC=C4C[C@H](n5cc[n+](CC(=O)c6ccc7ccccc7c6)c5)CC[C@]4(C)[C@H]3CC[C@]12C`, for which the 50% inhibitory concentration (IC50) is 1.88 µM in the assay on SMMC-7721; 10.5 µM in the assay on SW480; 10.6 µM with HL-60; greater than 20 µM with MCF7; 8.82 µM with A549.

`CC(C)CCC[C@@H](C)[C@H]1CC[C@H]2[C@@H]3C[C@H](n4cc[n+](CC(=O)c5cccc(Br)c5)c4)[C@]45C[C@H]4CC[C@]5(C)[C@H]3CC[C@]12C`: the half-inhibitory concentration (IC50) with SMMC-7721 amounted to 1.22 µM; with SW480, 8.23 µM; with HL-60, 1.42 µM; with MCF7 it was 8.7 µM; with A549 it was 7.84 µM.

Take `C[C@@H]1CC[C@@]2(OC1)O[C@H]1C[C@H]3[C@@H]4C[C@H](n5ccnc5)[C@]56C[C@H]5CC[C@]6(C)[C@H]4CC[C@]3(C)[C@H]1[C@@H]2C`: the IC50 was 10 µM with SMMC-7721; greater than 20 µM in the assay on SW480; 8.33 µM in the assay with HL-60; 19.7 µM with MCF7; 10.3 µM in the assay on A549.

Take `Cc1cc2nc[nH]c2cc1C` [DIMEDAZOL]: the half-maximal inhibitory concentration (IC50) in the assay on SMMC-7721, in the assay on SW480, in the assay with HL-60, in the assay with MCF7 and in the assay with A549 was greater than 20 µM in each case.

For the molecule `C[C@]12CC[C@H]3[C@@H](CC=C4C[C@@H](O)CC[C@@]43C)[C@@H]1CC[C@@H]2n1cc[n+](CC(=O)c2ccc3ccccc3c2)c1`, the IC50 in the assay on SMMC-7721 was 3.5 µM; with SW480, 5.59 µM; in the assay on HL-60 it was 2 µM; in the assay on MCF7, 4.38 µM; in the assay on A549 it was 9.69 µM.

Regarding `C[C@@H]1CC[C@@]2(OC1)O[C@H]1C[C@H]3[C@@H]4CC=C5C[C@H](n6cc[n+](CC(=O)c7ccccc7)c6)CC[C@]5(C)[C@H]4CC[C@]3(C)[C@H]1[C@@H]2C`, the IC50 in the assay with SMMC-7721 was 7.15 µM; in the assay with SW480 it was 8.18 µM; with HL-60, 1.09 µM; with MCF7, 5.18 µM; in the assay on A549 it was 7.3 µM.

Regarding `CC(C)CCC[C@@H](C)[C@H]1CC[C@H]2[C@@H]3C[C@H](n4cc[n+](Cc5ccccc5Br)c4)[C@]45C[C@H]4CC[C@]5(C)[C@H]3CC[C@]12C`, the 50% inhibitory concentration (IC50) with SMMC-7721 came out at 1.16 µM; in the assay with SW480 it was 10.9 µM; with HL-60, 5.53 µM; in the assay on MCF7, 10.8 µM; with A549 it was 7.65 µM.

Take `C[C@@H]1CC[C@@]2(OC1)O[C@H]1C[C@H]3[C@@H]4CC=C5C[C@H](n6c[n+](CC(=O)c7ccccc7)c7ccccc76)CC[C@]5(C)[C@H]4CC[C@]3(C)[C@H]1[C@@H]2C`: the half-maximal inhibitory concentration (IC50) amounted to 1.81 µM in the assay on SMMC-7721; 2.59 µM in the assay on SW480; 1.19 µM in the assay on HL-60; 2.49 µM with MCF7; 2.55 µM in the assay with A549.

With `C[C@]12CC[C@H](O)CC1=CC[C@@H]1[C@@H]2CC[C@]2(C)C(=O)CC[C@@H]12` [PRASTERONE], the IC50 in the assay with SMMC-7721, with SW480, in the assay on HL-60, in the assay on MCF7 and with A549 was greater than 20 µM in each case.

As to `CC(C)CCC[C@@H](C)[C@H]1CC[C@H]2[C@@H]3CC=C4C[C@@H](O)CC[C@]4(C)[C@H]3CC[C@]12C` [CHOLESTEROL], the IC50 in the assay with SMMC-7721, in the assay on SW480, with HL-60, with MCF7 and in the assay with A549 was greater than 20 µM throughout.

As to `Cc1cc2ncn([C@@H]3CC[C@@]4(C)C(=CC[C@H]5[C@@H]6C[C@@H]7O[C@]8(CC[C@@H](C)CO8)[C@@H](C)[C@@H]7[C@@]6(C)CC[C@@H]54)C3)c2cc1C`, the IC50 with SMMC-7721, with SW480, in the assay on HL-60, in the assay on MCF7 and in the assay on A549 was greater than 20 µM throughout.

Regarding `COc1ccc(C(=O)C[n+]2cn([C@@H]3CC[C@@]4(C)C(=CC[C@H]5[C@@H]6C[C@@H]7O[C@]8(CC[C@@H](C)CO8)[C@@H](C)[C@@H]7[C@@]6(C)CC[C@@H]54)C3)c3ccccc32)cc1`, the IC50 with SMMC-7721 worked out at 1.45 µM; with SW480, 2.55 µM; with HL-60, 1.22 µM; in the assay with MCF7 it was 2.11 µM; with A549, 2.45 µM.

With `COc1ccc(C(=O)C[n+]2ccn([C@@H]3CC[C@@]4(C)C(=CC[C@H]5[C@@H]6CC[C@H]([C@H](C)CCCC(C)C)[C@@]6(C)CC[C@@H]54)C3)c2)cc1`, the IC50 with SMMC-7721 was found to be 2.9 µM; in the assay with SW480 it was 4.87 µM; in the assay with HL-60, 6 µM; in the assay on MCF7, 5.25 µM; in the assay on A549, 13.2 µM.

`CC(C)CCC[C@@H](C)[C@H]1CC[C@H]2[C@@H]3CC=C4C[C@H](n5cnc6ccccc65)CC[C@]4(C)[C@H]3CC[C@]12C`: the IC50 with SMMC-7721, in the assay with SW480, with HL-60, in the assay with MCF7 and with A549 was greater than 20 µM each time.

For the molecule `COc1ccc(C(=O)C[n+]2ccn([C@H]3CC[C@@]4(C)C(=CC[C@H]5[C@@H]6CC[C@H]([C@H](C)CCCC(C)C)[C@@]6(C)CC[C@@H]54)C3)c2)cc1`, the IC50 in the assay on SMMC-7721 amounted to 1.52 µM; in the assay with SW480, 10.7 µM; with HL-60 it was 7.97 µM; in the assay on MCF7, 8.71 µM; in the assay with A549 it was 8.75 µM.
